From EP0329223A2, “Acetylenic and triyne cyclic carbonates” (Merck & Co., Inc., priority 1988, dated 1989)
Converted amounts (≈) assume the structure as drawn. Read-outs that look alike come from different tables or passages of the source.

Key:
[1] = molecular target: T1, Acetoacetyl-coenzyme A thiolase (Rattus norvegicus, UniProt Q5XI22); assay: Acetoacetyl-coenzyme A thiolase inhibition, coupled spectrophotometric assay (NADH oxidation at 340 nm); assay type: biochemical, Sprague Dawley rats
T1 construct: prepared from the livers of Sprague Dawley rats treated in the diet for one week with 0.075% lovastatin to induce the enzyme; from tissue; host or cells: liver of lovastatin-treated Sprague Dawley rats
T1 sequence (Q5XI22 whole entry): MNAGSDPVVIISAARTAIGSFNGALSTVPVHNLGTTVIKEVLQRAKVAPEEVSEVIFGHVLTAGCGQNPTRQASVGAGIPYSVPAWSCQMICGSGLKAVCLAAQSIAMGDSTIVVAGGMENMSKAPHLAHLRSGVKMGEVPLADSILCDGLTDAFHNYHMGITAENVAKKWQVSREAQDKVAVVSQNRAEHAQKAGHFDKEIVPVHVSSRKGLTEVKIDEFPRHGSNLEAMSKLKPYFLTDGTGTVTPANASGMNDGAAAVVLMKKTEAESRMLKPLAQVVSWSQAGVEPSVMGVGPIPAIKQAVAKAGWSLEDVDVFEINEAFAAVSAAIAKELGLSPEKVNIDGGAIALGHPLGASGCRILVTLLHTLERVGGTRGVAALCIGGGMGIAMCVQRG
Procedure: Acetoacetyl-coenzyme A thiolase was prepared from the livers of Sprague Dawley rats treated in the diet for one week with 0.075% lovastatin to induce the enzyme. […] The 0.06 M eluate described by Mehrabian et al. contained the acetoacetyl-coenzyme A thiolase. The isolate was concentrated by ammonium sulfate precipitation, dissolved in the buffer used for elution, and stored at -70°C.
Reaction was measured at room temperature for a time period necessary to produce a measurable reaction rate. An IC₅₀, the concentration that inhibits 50% of the acetoacetyl-coenzyme A thiolase activity, was determined for each test compound. […]

Candida albicans MY 1055 = assay: Antifungal assay, minimum inhibitory concentration; assay type: cell-based; conditions: lowest concentration that inhibits visible growth, Yeast Nitrogen Base/0.5% glucose, 37°C for 18 hours, starting inoculum 3-5 x 10⁻⁴ CFU/ml
Procedure: Antifungal activity was determined against Candida albicans MY 1055, a yeast strain maintained by Merck and Co; Rahway, New Jersey. Minimum inhibitory concentrations were determined using a starting inoculum of […]. The medium was Yeast Nitrogen Base/0.5% glucose. Test compounds were dissolved in a minimum amount of 50% aqueous ethanol and diluted to final concentrations with yeast medium. Samples were incubated at 37°C for 18 hours. The minimum inhibitory concentration (MIC), reported in µg/ml, is the lowest concentration of test compound that inhibits visible growth.

[2] = enzyme from rat liver (lovastatin-induced), pH 7.5, room temperature, 2.85 mM acetoacetyl-coenzyme A, read-out: IC₅₀

Row | Molecule | IC50 [1, 2] | IC50 [1] | MIC (Candida albicans MY 1055; read-out: MIC) | MIC (Candida albicans MY 1055)
1 | C#CC#CC#C[C@@H](OC(C)=O)[C@@H]1OC(=O)O[C@H]1CCCCCCC(=O)OC [Ex. 18, 5-(1(R)-(Acetyloxy)-2,4,6-heptatriynyl)-2-oxo-4(S),5(S)-1,3-dioxolane-4-heptanoic acid, methyl ester] | 150 nM |  |  | 
2 | C#CC#CC#C[C@@H](OC(C)=O)[C@@H]1OC(=O)O[C@H]1CCCCCCC(=O)O [Ex. 19, 5-(1(R)-(Acetyloxy)-2,4,6-heptatriynyl)-2-oxo-4(S),5(S)-1,3-dioxolane-4-heptanoic acid] | 9 nM |  |  | 
3 | C#CC#CC#C[C@@H](OC)[C@@H]1OC(=O)O[C@H]1CCCCCCC(=O)OC [Ex. 20, 5-(1(R)-Methoxy-2,4,6-heptatriynyl)-2-oxo-4(S),5(S)-1,3-dioxolane-4 heptanoic acid, methyl ester] | 46 nM |  |  | 
4 | COC(=O)CCCCCC[C@@H]1OC(=O)O[C@H]1C(O)C#CC#CC#C[Si](C)(C)C (single isomer, unassigned) [Ex. 5] |  | 62 nM | 0.078 µg/mL (≈ 0.193 µM) | 
5 | 5-(1(R)-Methoxy-2,4,6-octatriynyl)-2-oxo-4(S),5(S)-1,3 dioxolane-4-heptanoic acid, methyl ester [Ex. 13] | 560 nM |  |  | 5 µg/mL
6 | COC(=O)CCCCCC[C@@H]1OC(=O)O[C@H]1C(O)C#CC#CC#C[Si](C)(C)C (single isomer, unassigned) [Ex. 6] |  | 990 nM | 0.6 µg/mL (≈ 1.48 µM) | 
7 | C#CC#CC#C[C@@H](O)[C@@H]1OC(=O)O[C@H]1CCCCCCC(=O)OC [Ex. 17, 5-(1(R)-Hydroxy-2,4,6-heptatriynyl)-2-oxo-4(S),5(S)-1,3-dioxolane-4-heptanoic acid, methyl ester] | 24 nM |  |  | 
